Values quoted from earlier work, collected in patent US20260199368A1, “[…] SYSTEM CONTAINING REMIMAZOLAM” (LTS LOHMANN THERAPIE-SYSTEME AG, priority 2022, published 2026).

Settings: intranasal administration; cited from earlier work

## COC(=O)CC[C@@H]1N=C(c2ccccn2)c2cc(Br)ccc2-n2c(C)cnc21 [remimazolam, methyl 3-{(4S)-8-bromo-1-methyl-6-(pyridin-2-yl)-4/-/-imidazo[1,2-a][1,4]benzodiazepin-4-yl}propanoate]
  bioavailability: about 50%
